Measurements from patent publication US8497276B2, “Substituted indolo-piperidine compounds” (ArQule, Inc., priority 2009, dated 2013).

Legend:
[1] = system: MDA-MB 231; test: MTS Assay (cell growth inhibition), MDA-MB 231; type: cell-based; conditions: MDA-MB 231 cells, 72 hours with test compound; concentration not given
Experimental: (§1) Cells were maintained at 37° C., 5% CO2 in DMEM media supplemented with 1% fetal bovine serum, penicillin/streptomycin and fungizone (Invitrogen). Cells were seeded into 96-well tissue culture plates at 3000 per well and cultured at 37° C. for 18 hours. Test compounds were dissolved and diluted to 300× in DMSO then diluted 1:40 in DMEM. Cells were incubated with test compounds for 72 hours followed by incubation with tetrazolium compound (3-(4,5-dimethylthiazol-2-yl)-5-(3-carboxymethoxyphenyl)-2-(4-sulfophenyl)-2H-tetrazolium, inner salt; MTS) and the electron coupling reagent, phenazine methosulfate (PMS) for 4 hours. […] The ability of compounds to inhibit cell growth in this assay is correlated with the reduction of dehydrogenase enzyme activity found in metabolically active cells. The measurement of the absorbance of the formazan was assessed using an ENVISION™ (Perkin Elmer) microplate reader at 492 nm. The calculated IC50 value is the concentration of the test compound that causes a 50% decrease in the absorbance.

[2] = system: PACA-2; test: MTS Assay (cell growth inhibition), PACA-2; type: cell-based; conditions: PACA-2 cells, 72 hours with test compound; concentration not given
Experimental: as §1

[3] = system: NCI-H1299; test: MTS Assay (cell growth inhibition), NCI-H1299; type: cell-based; conditions: NCI-H1299 cells, 72 hours with test compound; concentration not given
Experimental: as §1

[4] = system: PC-3; test: MTS Assay (cell growth inhibition), PC-3; type: cell-based; conditions: PC-3 cells, 72 hours with test compound; concentration not given
Experimental: as §1

[5] = system: DLD-1; test: MTS Assay (cell growth inhibition), DLD-1; type: cell-based; conditions: DLD-1 cells, 72 hours with test compound; concentration not given
Experimental: as §1

[6] = target: T1, Tec kinase (Homo sapiens, UniProt P42680); test: Tec Kinase Activity Assay; type: biochemical; conditions: 75 μM ATP, Pyk-2 substrate; compound concentration not given
T1 sequence (P42680 1-631): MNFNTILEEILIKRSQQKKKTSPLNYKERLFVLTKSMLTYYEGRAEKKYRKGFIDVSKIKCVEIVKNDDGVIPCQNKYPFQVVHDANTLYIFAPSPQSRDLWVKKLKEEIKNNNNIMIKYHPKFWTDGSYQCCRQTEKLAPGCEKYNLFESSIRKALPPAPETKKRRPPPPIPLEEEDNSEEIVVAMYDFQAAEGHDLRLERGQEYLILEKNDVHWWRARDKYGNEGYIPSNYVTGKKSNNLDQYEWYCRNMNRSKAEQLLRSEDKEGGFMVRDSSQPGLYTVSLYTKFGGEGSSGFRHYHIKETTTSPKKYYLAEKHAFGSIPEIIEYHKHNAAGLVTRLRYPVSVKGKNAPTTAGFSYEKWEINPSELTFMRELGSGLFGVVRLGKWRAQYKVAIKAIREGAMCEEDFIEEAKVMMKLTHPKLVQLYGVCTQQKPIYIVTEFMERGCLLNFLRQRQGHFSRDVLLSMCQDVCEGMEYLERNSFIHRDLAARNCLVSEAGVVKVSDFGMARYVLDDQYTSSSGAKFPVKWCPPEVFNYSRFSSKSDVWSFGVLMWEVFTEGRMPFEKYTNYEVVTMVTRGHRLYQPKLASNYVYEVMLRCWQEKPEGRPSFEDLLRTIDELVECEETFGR
Experimental: The disclosed compounds were assayed for their ability to inhibit the activity of Tec kinase. Nunc Maxisorb plates were coated with streptavidin by overnight incubation with 100 μl per well of 1 μg/ml Streptavidin in DPBS. Prior to the start of the experiment, the plates were washed with TBST (3×200 μl) and blocked for at least 1 hour by adding 150 μl of 5% BSA/TBST. The plates were then washed with TBST (3×200 μl/well) and left dry immediately before the capture step.
The disclosed test compounds and controls (Staurosporine and Sutent) were prepared using the following assay buffer (50 mM Tris-HCl, 0.02 mg/ml BSA, 10 mM MgCl2, 0.1 mM Na3VO4, 1 mM EGTA, 75 μM ATP, 0.01% NP-40, 2 mM DTT in 10% glycerol/water) at 3× desired final concentration. 20 μl of the test compounds (or control) and 20 μl TEC (0.25 ng/μl) were rapidly added to a reaction plate. The plate was incubated for 30 minutes. 20 μl of Pyk-2 (0.5 ng/μl) was then added to the reaction plate. The plate was incubated at room temperature for two hours.
50 μl was transferred from the reaction plate to the streptavidin coated plate. The capture plate was incubated at room temperature for 30 minutes then washed with TBST 6 times. 100 μl/well of Cell Signaling anti-phospho tyrosine was added to the capture plate at a dilution of 1:3000 in 2% BSA/TBST. The plate was incubated for one hour at room temperature then washed with TBST 6 times. 100 μl/well of alkaline phosphatase tagged goat anti-mouse antibody was added to the capture plate at a dilution of 1:4000 in 2% BSA/TBST. The plate was incubated for one hour at room temperature then washed with TBST 6 times.
The fluorescent readout was initiated by the addition of 100 μl/well of Attophos reagent (6 mg/10 ml) and the reading was done on the Perkin Elmer Envision system.

[7] = system: Kato III; test: MTS Assay (cell growth inhibition), Kato III; type: cell-based; conditions: Kato III cells, 72 hours with test compound; concentration not given
Experimental: as §1

Row | SMILES | Biochemical IC50 (% inhibition) Tec [6] | MTS cell kill data (% inhibition) MDA-MB 231 [1] | MTS cell kill data (% inhibition) PACA-2 [2] | MTS cell kill data (% inhibition) NCI-H1299 [3] | MTS cell kill data (% inhibition) PC-3 [4] | MTS cell kill data (% inhibition) DLD-1 [5] | MTS cell kill data (% inhibition) Kato III [7]
1 | CC(C)c1ccc(C2c3[nH]c4ccccc4c3CCN2c2ncnc3[nH]ncc23)cc1 (stereo not drawn) [Compound 21, 1-(4-isopropylphenyl)-2-(1H-pyrazolo[3,4-d]pyrimidin-4-yl)-2,3,4,9-tetrahydro-1H-beta-carboline] | B (B = 50-79% inhibition) | A (A = 80-100% inhibition) | A (A = 80-100% inhibition) | A (A = 80-100% inhibition) | B (B = 50-79% inhibition) | A (A = 80-100% inhibition) | A (A = 80-100% inhibition)
2 | c1ccc(C2c3[nH]c4ccccc4c3CCN2c2ncnc3[nH]ccc23)cc1 (stereo not drawn) [Compound 24, 1-phenyl-2-(7H-pyrrolo[2,3-d]pyrimidin-4-yl)-2,3,4,9-tetrahydro-1H-beta-carboline] | B (B = 50-79% inhibition) | C (C = <50% inhibition) | B (B = 50-79% inhibition) | B (B = 50-79% inhibition) | C (C = <50% inhibition) | B (B = 50-79% inhibition) | B (B = 50-79% inhibition)
3 | c1ccc(C2c3[nH]c4ccccc4c3CCN2c2ncnc3[nH]cnc23)cc1 (stereo not drawn) [Compound 25, 1-phenyl-2-(9H-purin-6-yl)-2,3,4,9-tetrahydro-1H-beta-carboline] | C (C = <50% inhibition) | C (C = <50% inhibition) | B (B = 50-79% inhibition) | B (B = 50-79% inhibition) | C (C = <50% inhibition) | B (B = 50-79% inhibition) | B (B = 50-79% inhibition)
4 | c1ccc(C2c3[nH]c4ccccc4c3CCN2c2ncnc3[nH]ncc23)cc1 (stereo not drawn) [Compound 26, 1-phenyl-2-(1H-pyrazolo[3,4-d]pyrimidin-4-yl)-2,3,4,9-tetrahydro-1H-beta-carboline] | C (C = <50% inhibition) | C (C = <50% inhibition) | B (B = 50-79% inhibition) | B (B = 50-79% inhibition) | C (C = <50% inhibition) | B (B = 50-79% inhibition) | B (B = 50-79% inhibition)

More lines, main results first:

Row | Biochemical IC50 (% inhibition) Tec [6] | SMILES | MTS cell kill data (% inhibition) MDA-MB 231 [1] | MTS cell kill data (% inhibition) PACA-2 [2] | MTS cell kill data (% inhibition) NCI-H1299 [3] | MTS cell kill data (% inhibition) PC-3 [4] | MTS cell kill data (% inhibition) DLD-1 [5] | MTS cell kill data (% inhibition) Kato III [7]
5 | C (C = <50% inhibition) | COc1ccc(C2c3[nH]c4ccccc4c3CCN2c2ncnc3[nH]ccc23)cc1OC (stereo not drawn) [Compound 22, 1-(3,4-dimethoxyphenyl)-2-(7H-pyrrolo[2,3-d]pyrimidin-4-yl)-2,3,4,9-tetrahydro-1H-beta-carboline] | C (C = <50% inhibition) | B (B = 50-79% inhibition) | B (B = 50-79% inhibition) | C (C = <50% inhibition) | B (B = 50-79% inhibition) | B (B = 50-79% inhibition)
6 | C (C = <50% inhibition) | COc1ccc(C2c3[nH]c4ccccc4c3CCN2c2ncnc3[nH]cnc23)cc1OC (stereo not drawn) [Compound 23, 1-(3,4-dimethoxyphenyl)-2-(9H-purin-6-yl)-2,3,4,9-tetrahydro-1H-beta-carboline] | C (C = <50% inhibition) | B (B = 50-79% inhibition) | B (B = 50-79% inhibition) | C (C = <50% inhibition) | B (B = 50-79% inhibition) | B (B = 50-79% inhibition)
